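The compound was tested at five concentrations on cells cultured in 96-well plates, with a 48-hour exposure period. GI50 is the concentration that inhibits growth by half. The concentration for full growth arrest is given as TGI.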
Legend:
Test in all cases: DTP human tumour cell line panel, 48 h; in the data active = GI50 below about 0.43 µM; inactive = the rest
786-0 renal = test system: 786-0 renal
A498 renal = test system: A498 renal
A549 NSCLC = test system: A549 NSCLC
ACHN renal = test system: ACHN renal
BT-549 breast = test system: BT-549 breast
CAKI-1 renal = test system: CAKI-1 renal
CCRF-CEM leukemia = test system: CCRF-CEM leukemia
COLO 205 colon = test system: COLO 205 colon
DU-145 prostate = test system: DU-145 prostate
EKVX NSCLC = test system: EKVX NSCLC
HCC-2998 colon = test system: HCC-2998 colon
HCT-116 colon = test system: HCT-116 colon
HCT-15 colon = test system: HCT-15 colon
HL-60(TB) leukemia = test system: HL-60(TB) leukemia
HOP-62 NSCLC = test system: HOP-62 NSCLC
HOP-92 NSCLC = test system: HOP-92 NSCLC
HS 578T breast = test system: HS 578T breast
HT29 colon = test system: HT29 colon
IGROV1 ovarian = test system: IGROV1 ovarian
K-562 leukemia = test system: K-562 leukemia
KM12 colon = test system: KM12 colon
LOX IMVI melanoma = test system: LOX IMVI melanoma
M14 melanoma = test system: M14 melanoma
MCF7 breast = test system: MCF7 breast
MDA-MB-231 breast = test system: MDA-MB-231 breast
MDA-MB-435 = test system: MDA-MB-435
MOLT-4 leukemia = test system: MOLT-4 leukemia
NCI-H226 lung = test system: NCI-H226 lung
NCI-H23 lung = test system: NCI-H23 lung
NCI-H460 lung = test system: NCI-H460 lung
NCI-H522 lung = test system: NCI-H522 lung
NCI/ADR-RES ovarian = test system: NCI/ADR-RES ovarian
OVCAR-4 ovarian = test system: OVCAR-4 ovarian
OVCAR-5 ovarian = test system: OVCAR-5 ovarian
OVCAR-8 ovarian = test system: OVCAR-8 ovarian
PC-3 prostate = test system: PC-3 prostate
RPMI-8226 leukemia = test system: RPMI-8226 leukemia
RXF 393 renal = test system: RXF 393 renal
SF-268 CNS = test system: SF-268 CNS
SF-295 CNS = test system: SF-295 CNS
SF-539 CNS = test system: SF-539 CNS
SK-MEL-2 melanoma = test system: SK-MEL-2 melanoma
SK-MEL-28 melanoma = test system: SK-MEL-28 melanoma
SK-MEL-5 melanoma = test system: SK-MEL-5 melanoma
SK-OV-3 ovarian = test system: SK-OV-3 ovarian
SN12C renal = test system: SN12C renal
SNB-19 CNS = test system: SNB-19 CNS
SR leukemia = test system: SR leukemia
SW-620 colon = test system: SW-620 colon
T-47D breast = test system: T-47D breast
TK-10 renal = test system: TK-10 renal
U251 CNS = test system: U251 CNS
UACC-257 melanoma = test system: UACC-257 melanoma
UACC-62 melanoma = test system: UACC-62 melanoma
UO-31 renal = test system: UO-31 renal

COc1ccc(C(=O)c2c(N)c(C#N)cn2-c2cccc(OC)c2)cc1
4.91 µM: TGI (HL-60(TB) leukemia)
97.4 µM: TGI (HCC-2998 colon)
8.57 µM: TGI (K-562 leukemia)
> 100 µM: TGI (786-0 renal) | TGI (A549 NSCLC) | TGI (ACHN renal) | TGI (BT-549 breast) | TGI (CAKI-1 renal) | TGI (DU-145 prostate) | TGI (EKVX NSCLC) | TGI (HCT-116 colon) | TGI (HCT-15 colon) | TGI (HOP-62 NSCLC) | TGI (HOP-92 NSCLC) | TGI (IGROV1 ovarian) | TGI (KM12 colon) | TGI (LOX IMVI melanoma) | TGI (M14 melanoma) | TGI (MCF7 breast) | TGI (MDA-MB-231 breast) | TGI (NCI-H226 lung) | TGI (NCI-H23 lung) | TGI (NCI-H460 lung) | TGI (NCI/ADR-RES ovarian) | TGI (OVCAR-4 ovarian) | TGI (OVCAR-5 ovarian) | TGI (OVCAR-8 ovarian) | TGI (PC-3 prostate) | TGI (SF-268 CNS) | TGI (SF-295 CNS) | TGI (SK-MEL-2 melanoma) | TGI (SK-MEL-28 melanoma) | TGI (SK-OV-3 ovarian) | TGI (SN12C renal) | TGI (SNB-19 CNS) | TGI (SW-620 colon) | TGI (T-47D breast) | TGI (TK-10 renal) | TGI (U251 CNS) | TGI (UACC-257 melanoma) | TGI (UACC-62 melanoma) | TGI (UO-31 renal)
15.7 µM: TGI (RPMI-8226 leukemia)
14.4 µM: TGI (SR leukemia)
8.52 µM: TGI (SF-539 CNS)
4.49 µM: TGI (MDA-MB-435)
8.66 µM: TGI (HS 578T breast)
23 µM: TGI (COLO 205 colon)
7.8 µM: TGI (A498 renal)
23.2 µM: TGI (SK-MEL-5 melanoma)
6.1 µM: TGI (RXF 393 renal)
17.9 µM: TGI (MOLT-4 leukemia)
7.51 µM: TGI (NCI-H522 lung)
inactive: GI50 (786-0 renal) 4.64 µM | GI50 (A498 renal) 2.73 µM | GI50 (A549 NSCLC) 5.84 µM | GI50 (ACHN renal) 6.52 µM | GI50 (BT-549 breast) 4.41 µM | GI50 (CAKI-1 renal) 3.2 µM | GI50 (CCRF-CEM leukemia) 2.68 µM | GI50 (COLO 205 colon) 3.01 µM | GI50 (DU-145 prostate) 4.7 µM | GI50 (EKVX NSCLC) 4.68 µM | GI50 (HCC-2998 colon) 4.98 µM | GI50 (HCT-116 colon) 3.5 µM | GI50 (HCT-15 colon) 2.49 µM | GI50 (HL-60(TB) leukemia) 2.01 µM | GI50 (HOP-62 NSCLC) 4.12 µM | GI50 (HOP-92 NSCLC) 9.53 µM | GI50 (HS 578T breast) 2.42 µM | GI50 (HT29 colon) 2.64 µM | GI50 (IGROV1 ovarian) 5 µM | GI50 (K-562 leukemia) 0.707 µM | GI50 (KM12 colon) 4.17 µM | GI50 (LOX IMVI melanoma) 4.6 µM | GI50 (M14 melanoma) 2.51 µM | GI50 (MCF7 breast) 3.07 µM | GI50 (MDA-MB-231 breast) 7.8 µM | GI50 (MDA-MB-435) 0.788 µM | GI50 (MOLT-4 leukemia) 3.65 µM | GI50 (NCI-H226 lung) 4.5 µM | GI50 (NCI-H23 lung) 5.61 µM | GI50 (NCI-H460 lung) 3.41 µM | GI50 (NCI-H522 lung) 1.99 µM | GI50 (NCI/ADR-RES ovarian) 2.35 µM | GI50 (OVCAR-4 ovarian) 18 µM | GI50 (OVCAR-5 ovarian) 7.36 µM | GI50 (OVCAR-8 ovarian) 5.3 µM | GI50 (PC-3 prostate) 3.75 µM | GI50 (RPMI-8226 leukemia) 2.94 µM | GI50 (RXF 393 renal) 2.05 µM | GI50 (SF-268 CNS) 5.65 µM | GI50 (SF-295 CNS) 2.9 µM | GI50 (SF-539 CNS) 2.41 µM | GI50 (SK-MEL-2 melanoma) 4.58 µM | GI50 (SK-MEL-28 melanoma) 49.8 µM | GI50 (SK-MEL-5 melanoma) 3.19 µM | GI50 (SK-OV-3 ovarian) 4.09 µM | GI50 (SN12C renal) 5.64 µM | GI50 (SNB-19 CNS) 3.92 µM | GI50 (SR leukemia) 0.775 µM | GI50 (SW-620 colon) 2.85 µM | GI50 (T-47D breast) 3.72 µM | GI50 (TK-10 renal) 6.14 µM | GI50 (U251 CNS) 3.45 µM | GI50 (UACC-257 melanoma) 9.48 µM | GI50 (UACC-62 melanoma) 3.22 µM | GI50 (UO-31 renal) 5.42 µM
20.2 µM: TGI (HT29 colon)
9.83 µM: TGI (CCRF-CEM leukemia)

Reference: PubChem BioAssay (NCI)
